Earlier results in publication PMC11336009 (GeroScience, 2024).

Key:
Conditions in all cases: cited from earlier work
rat rotenone model of PD = system: rat rotenone model of PD
[1] = system: rat 3-nitropropionic acid (3NP) model; design: method as in PMID 31728850
[2] = system: diabetic mice after ischemic stroke; design: method as in PMID 24821550

For `N#C[C@@H]1CCCN1C(=O)CNC12CC3CC(CC(O)(C3)C1)C2` [Vildagliptin], the “Effects in rat rotenone PD model” value (rat rotenone model of PD) is listed as “mitigate striatal DA loss, neuroinflammation and motor deficits” and the “Effects in striatum of rat 3NP model of late-stage Huntington's disease” value [1] is listed as “reduce neuronal degeneration and markers of oxidative stress”.
In the case of `Cn1c(=O)cc(N2CCC[C@@H](N)C2)n(Cc2ccccc2C#N)c1=O` [alogliptin], the “Effects in rotenone challenged PD rats” value (rat rotenone model of PD; same effects as described for saxagliptin) is listed as “do the same”.
In the case of `CC#CCn1c(N2CCC[C@@H](N)C2)nc2c1c(=O)n(Cc1nc(C)c3ccccc3n1)c(=O)n2C` [linagliptin], the “Neural stem cell proliferation after ischemic stroke” value [2] is given as “augment neural stem cell proliferation”.
For `N#C[C@@H]1C[C@@H]2C[C@@H]2N1C(=O)[C@@H](N)C12CC3CC(CC(O)(C3)C1)C2` [saxagliptin], the “Effects in rat rotenone PD model” value (rat rotenone model of PD) is given as “preserve TH levels within the SNc and mitigate striatal declines in DA and TH levels”.
In the case of “liraglutide (HAEGTFTSDVSSYLEGQAAKEFIAWLVRGRG; chains of the INN, looked up) [GLP-1R agonist]”, the “Effects in rat rotenone model of PD” value (rat rotenone model of PD) is given as “mitigated motor deficits, striatal DA loss, SNc dopaminergic neuronal degeneration and neuroinflammation”.
